PubChem BioAssay AID248 (DTP/NCI, 2004)
Several values for one entry are separate records, joined by “and”; a condition that tells them apart may be missing. Equal entries are not always repeated. Inconclusive results and toxic doses are left out.

System: L1210 leukemia ip in BDF1 mice, survival T/C
Assay: NCI In Vivo Anticancer Drug Screen. Data for tumor model L1210 Leukemia (intraperitoneal) in B6D2F1 (BDF1) mice
Conditions: higher = longer survival
Summary of the method: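 Read-out is survival time, reported as the treated-group measurement over the vehicle-control measurement.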

[1] = endpoint: mean survival time, dose: 100.0 mg/kg/injection, schedule: Q01DX009 (ip), vehicle: saline
[2] = endpoint: mean survival time, dose: 200.0 mg/kg/injection, schedule: Q01DX009 (ip), vehicle: saline
[3] = endpoint: mean survival time, dose: 100.0 mg/kg/injection, schedule: Q01DX001 (ip), vehicle: saline
[4] = endpoint: mean survival time, dose: 200.0 mg/kg/injection, schedule: Q01DX001 (ip), vehicle: saline
[5] = endpoint: mean survival time, dose: 400.0 mg/kg/injection, schedule: Q01DX001 (ip), vehicle: saline

CN[C@H]1CCc2cc(OC)c(OC)c(OC)c2-c2ccc(OC)c(=O)cc21
T/C (endpoint: mean survival time, dose: 0.14 mg/kg/injection, schedule: Q01DX009 (ip), vehicle: saline): 95 % of control | T/C (endpoint: mean survival time, dose: 0.23 mg/kg/injection, schedule: Q01DX009 (ip), vehicle: saline): 104 % of control | T/C (endpoint: mean survival time, dose: 0.39 mg/kg/injection, schedule: Q01DX009 (ip), vehicle: saline): 112 % of control | T/C (endpoint: mean survival time, dose: 0.39 mg/kg/injection, schedule: Q04DX003 (ip), vehicle: saline): 101 % of control | T/C (endpoint: mean survival time, dose: 0.65 mg/kg/injection, schedule: Q01DX009 (ip), vehicle: saline): 110 % of control | T/C (endpoint: mean survival time, dose: 0.65 mg/kg/injection, schedule: Q04DX003 (ip), vehicle: saline): 102 % of control | T/C (endpoint: mean survival time, dose: 1.0 mg/kg/injection, schedule: Q03HX008 (ip), vehicle: saline): 118 % of control | T/C (endpoint: mean survival time, dose: 1.08 mg/kg/injection, schedule: Q01DX009 (ip), vehicle: saline): 110 % of control | T/C (endpoint: mean survival time, dose: 1.08 mg/kg/injection, schedule: Q04DX003 (ip), vehicle: saline): 101 % of control | T/C (endpoint: mean survival time, dose: 1.8 mg/kg/injection, schedule: Q04DX003 (ip), vehicle: saline): 101 % of control | T/C (endpoint: mean survival time, dose: 2.0 mg/kg/injection, schedule: Q01DX004 (ip), vehicle: saline): 106 % of control | T/C (endpoint: mean survival time, dose: 2.0 mg/kg/injection, schedule: Q01DX004 (oral), vehicle: saline): 103 % of control | T/C (endpoint: mean survival time, dose: 2.0 mg/kg/injection, schedule: Q03HX008 (ip), vehicle: saline): 120 % of control | T/C (endpoint: mean survival time, dose: 3.0 mg/kg/injection, schedule: Q01DX001 (ip), vehicle: saline): 100 % of control | T/C (endpoint: mean survival time, dose: 3.0 mg/kg/injection, schedule: Q04DX003 (ip), vehicle: saline): 95 % of control | T/C (endpoint: mean survival time, dose: 4.0 mg/kg/injection, schedule: Q01DX001 (oral), vehicle: saline): 103 % of control | T/C (endpoint: mean survival time, dose: 4.0 mg/kg/injection, schedule: Q01DX004 (ip), vehicle: saline): 106 % of control | T/C (endpoint: mean survival time, dose: 4.0 mg/kg/injection, schedule: Q01DX004 (oral), vehicle: saline): 111 % of control | T/C (endpoint: mean survival time, dose: 5.0 mg/kg/injection, schedule: Q01DX001 (ip), vehicle: saline): 103 % of control | T/C (endpoint: mean survival time, dose: 5.3 mg/kg/injection, schedule: Q01DX001 (ip), vehicle: saline): 102 % of control | T/C (endpoint: mean survival time, dose: 8.0 mg/kg/injection, schedule: Q01DX001 (ip), vehicle: saline): 101 % of control and 102 % of control | T/C (endpoint: mean survival time, dose: 8.0 mg/kg/injection, schedule: Q01DX001 (oral), vehicle: saline): 108 % of control | T/C (endpoint: mean survival time, dose: 8.0 mg/kg/injection, schedule: Q01DX004 (ip), vehicle: saline): 113 % of control | T/C (endpoint: mean survival time, dose: 8.0 mg/kg/injection, schedule: Q01DX004 (oral), vehicle: saline): 111 % of control | T/C (endpoint: mean survival time, dose: 8.0 mg/kg/injection, schedule: Q03HX008 (ip), vehicle: saline): 156 % of control | T/C (endpoint: mean survival time, dose: 8.0 mg/kg/injection, schedule: Q## X002 (ip), vehicle: saline): 119 % of control | T/C (endpoint: mean survival time, dose: 8.0 mg/kg/injection, schedule: Q## X003 (ip), vehicle: saline): 100 % of control | T/C (endpoint: mean survival time, dose: 8.0 mg/kg/injection, schedule: Q## X008 (ip), vehicle: saline): 107 % of control | T/C (endpoint: mean survival time, dose: 8.0 mg/kg/injection, schedule: Q## X016 (ip), vehicle: saline): 110 % of control | T/C (endpoint: mean survival time, dose: 9.0 mg/kg/injection, schedule: Q01DX001 (ip), vehicle: saline): 104 % of control | T/C (endpoint: mean survival time, dose: 12.0 mg/kg/injection, schedule: Q01DX001 (ip), vehicle: saline): 104 % of control | T/C (endpoint: mean survival time, dose: 16.0 mg/kg/injection, schedule: Q01DX001 (ip), vehicle: saline): 105 % of control | T/C (endpoint: mean survival time, dose: 16.0 mg/kg/injection, schedule: Q01DX001 (oral), vehicle: saline): 109 % of control | T/C (endpoint: mean survival time, dose: 16.0 mg/kg/injection, schedule: Q01DX004 (ip), vehicle: saline): 118 % of control | T/C (endpoint: mean survival time, dose: 16.0 mg/kg/injection, schedule: Q## X002 (ip), vehicle: saline): 98 % of control | T/C (endpoint: mean survival time, dose: 16.0 mg/kg/injection, schedule: Q## X003 (ip), vehicle: saline): 112 % of control | T/C (endpoint: mean survival time, dose: 16.0 mg/kg/injection, schedule: Q## X016 (ip), vehicle: saline): 112 % of control | T/C (endpoint: mean survival time, dose: 16.0 mg/kg/injection, schedule: Q## X024 (ip), vehicle: saline): 100 % of control | T/C (endpoint: mean survival time, dose: 18.0 mg/kg/injection, schedule: Q01DX001 (ip), vehicle: saline): 114 % of control | T/C (endpoint: mean survival time, dose: 32.0 mg/kg/injection, schedule: Q01DX001 (ip), vehicle: saline): 101 % of control and 103 % of control | T/C (endpoint: mean survival time, dose: 32.0 mg/kg/injection, schedule: Q01DX001 (oral), vehicle: saline): 119 % of control and 124 % of control | T/C (endpoint: mean survival time, dose: 32.0 mg/kg/injection, schedule: Q01DX009 (ip), vehicle: saline): 102 % of control | T/C (endpoint: mean survival time, dose: 32.0 mg/kg/injection, schedule: Q## X002 (ip), vehicle: saline): 117 % of control | T/C (endpoint: mean survival time, dose: 32.0 mg/kg/injection, schedule: Q## X003 (ip), vehicle: saline): 104 % of control | T/C (endpoint: mean survival time, dose: 32.0 mg/kg/injection, schedule: Q## X016 (ip), vehicle: saline): 110 % of control | T/C (endpoint: mean survival time, dose: 64.0 mg/kg/injection, schedule: Q01DX001 (ip), vehicle: saline): 114 % of control and 116 % of control | T/C (endpoint: mean survival time, dose: 64.0 mg/kg/injection, schedule: Q## X016 (ip), vehicle: saline): 89 % of control | T/C (endpoint: mean survival time, dose: 128.0 mg/kg/injection, schedule: Q01DX001 (ip), vehicle: saline): 124 % of control | T/C (endpoint: mean survival time, dose: 256.0 mg/kg/injection, schedule: Q01DX001 (ip), vehicle: saline): 123 % of control

CC(=N/NC(=O)c1ccc[n+](C)c1)/C(C)=N\NC(=O)c1ccc[n+](C)c1
T/C (endpoint: mean survival time, dose: 25.0 mg/kg/injection, schedule: Q01DX001 (ip), vehicle: saline): 95 % of control | T/C (endpoint: mean survival time, dose: 50.0 mg/kg/injection, schedule: Q01DX001 (ip), vehicle: saline): 95 % of control

CCN(CC)Cc1c(C)[nH]c2ccc(N(C)C)cc2c1=O
T/C (endpoint: mean survival time, dose: 50.0 mg/kg/injection, schedule: Q01DX009 (ip), vehicle: saline): 101 % of control | T/C [1]: 106 % of control | T/C (endpoint: mean survival time, dose: 100.0 mg/kg/injection, schedule: Q04DX003 (ip), vehicle: saline): 115 % of control | T/C [2]: 92 % of control | T/C (endpoint: mean survival time, dose: 200.0 mg/kg/injection, schedule: Q04DX003 (ip), vehicle: saline): 109 % of control

CC(=O)NC(CS)C(=O)O (configuration not stated)
T/C [3]: 96 % of control | T/C [4]: 95 % of control | T/C [5]: 98 % of control | T/C (endpoint: median survival time, dose: 250.0 mg/kg/injection, schedule: Q01DX001 (ip), vehicle: saline): 100 % of control | T/C (endpoint: median survival time, dose: 500.0 mg/kg/injection, schedule: Q01DX001 (ip), vehicle: none): 101 % of control | T/C (endpoint: median survival time, dose: 750.0 mg/kg/injection, schedule: Q01DX001 (ip), vehicle: none): 99 % of control | T/C (endpoint: median survival time, dose: 750.0 mg/kg/injection, schedule: Q01DX001 (ip), vehicle: saline): 100 % of control | T/C (endpoint: median survival time, dose: 1000.0 mg/kg/injection, schedule: Q01DX001 (ip), vehicle: none): 97 % of control and 106 % of control | T/C (endpoint: median survival time, dose: 1000.0 mg/kg/injection, schedule: Q01DX009 (ip), vehicle: saline): 93 % of control | T/C (endpoint: median survival time, dose: 1000.0 mg/kg/injection, schedule: Q01DX014 (ip), vehicle: saline): 100 % of control and 102 % of control | T/C (endpoint: median survival time, dose: 1000.0 mg/kg/injection, schedule: Q07DX003 (ip), vehicle: saline): 94 % of control | T/C (endpoint: median survival time, dose: 1500.0 mg/kg/injection, schedule: Q01DX001 (ip), vehicle: none): 113 % of control | T/C (endpoint: median survival time, dose: 1500.0 mg/kg/injection, schedule: Q01DX009 (ip), vehicle: saline): 96 % of control | T/C (endpoint: median survival time, dose: 1500.0 mg/kg/injection, schedule: Q01DX014 (ip), vehicle: saline): 102 % of control and 105 % of control | T/C (endpoint: median survival time, dose: 1500.0 mg/kg/injection, schedule: Q07DX003 (ip), vehicle: saline): 94 % of control | T/C (endpoint: median survival time, dose: 2000.0 mg/kg/injection, schedule: Q01DX001 (ip), vehicle: saline): 100 % of control

CCCC(CCC)(C(N)=O)C(=O)O
T/C [1]: 102 % of control | T/C [2]: 100 % of control | T/C (endpoint: mean survival time, dose: 400.0 mg/kg/injection, schedule: Q01DX009 (ip), vehicle: saline): 92 % of control

CCOC(=O)CC(C(=O)OCC)N1CCCCC1 (configuration not stated)
T/C [3]: 92 % of control | T/C (endpoint: mean survival time, dose: 100.0 mg/kg/injection, schedule: Q01DX009 (ip), vehicle: alcohol): 95 % of control | T/C (endpoint: mean survival time, dose: 100.0 mg/kg/injection, schedule: Q04DX003 (ip), vehicle: alcohol): 100 % of control | T/C [4]: 91 % of control | T/C (endpoint: mean survival time, dose: 200.0 mg/kg/injection, schedule: Q01DX009 (ip), vehicle: alcohol): 95 % of control | T/C (endpoint: mean survival time, dose: 200.0 mg/kg/injection, schedule: Q04DX003 (ip), vehicle: alcohol): 95 % of control | T/C [5]: 94 % of control | T/C (endpoint: mean survival time, dose: 400.0 mg/kg/injection, schedule: Q01DX009 (ip), vehicle: alcohol): 105 % of control | T/C (endpoint: mean survival time, dose: 400.0 mg/kg/injection, schedule: Q04DX003 (ip), vehicle: alcohol): 97 % of control

COc1cc(-c2cnc(N)nc2N)cc(OC)c1OC
T/C (endpoint: mean survival time, dose: 100.0 mg/kg/injection, schedule: Q04DX003 (ip), vehicle: saline with Tween-80): 97 % of control | T/C (endpoint: mean survival time, dose: 200.0 mg/kg/injection, schedule: Q04DX003 (ip), vehicle: saline with Tween-80): 103 % of control | T/C (endpoint: mean survival time, dose: 400.0 mg/kg/injection, schedule: Q04DX003 (ip), vehicle: saline with Tween-80): 95 % of control
